Experimental data taken from patent publication US8981111B2 (priority 2008, dated 2015).

Test: log P (HPLC/MS data of the preparation examples)
Settings: HCOOH

**Q.** Which “log P(HCOOH)” value does the source give for “6-{[({(3-bromo-4-methoxyphenyl)[3-chloro-5-(trifluoromethyl)pyridin-2-yl]methylene}amino)oxy]methyl}pyridin-2-amine [Example 432]” here?
**A.** 2.54

**Q.** For “6-[({[(1-methyl-1H-imidazol-5-yl)(phenyl)methylene]amino}oxy)methyl]pyridin-2-amine [Example 108]”, which “log P(HCOOH)” value is on record?
**A.** 0.29

Same assay, conditions: HCOOH (formic acid)

**Q.** With `Cn1cncc1C(=O)c1cccs1` [(1-methyl-1H-imidazol-5-yl)(2-thienyl)methanone] as the compound, how does the chromatographic logP read?
**A.** 0.52

**Q.** Which chromatographic logP does the source give for `Cn1cncc1C(=NOCc1csc(N)n1)c1cccs1` [Example 495, 4-[({[(1-methyl-1H-imidazol-5-yl)(2-thienyl)methylene]amino}oxy)methyl]-1,3-thiazol-2-amine] here?
**A.** 0.22

Same assay, conditions: HPLC (LC-MS) method [b]: pH 2.7, 0.1% formic acid in water and acetonitrile, linear gradient 10% to 95% acetonitrile; EEC directive 79/831 Annex V.A8

**Q.** With “6-{[({(3-bromo-4-methoxyphenyl)[3-chloro-5-(trifluoromethyl)pyridin-2-yl]methylene}amino)oxy]methyl}pyridin-2-amine [Example 432]” as the compound, how does the log p read?
**A.** 1.99^[b]

**Q.** For `CCCC(=O)Nc1cccc(CON=C(c2cccs2)c2cncn2C)n1` [Example 445], which log p is on record?
**A.** 1.5^[b]

**Q.** For `Cn1cncc1C(=NOCc1cccc(N2C(=O)c3ccccc3C2=O)n1)c1cccs1` [Example 420], which log p is on record?
**A.** 1.66^[b]

**Q.** Which log p does the source give for `CCCCC(=O)Nc1nc(CON=C(c2cccs2)c2cncn2C)cs1` [Example 453] here?
**A.** 1.7^[b]

**Q.** For `CC(C)C(=O)Nc1cccc(CON=C(c2cccs2)c2nccn2C)n1` [Example 415], which log p is on record?
**A.** 1.65^[b]

**Q.** For `Cn1ncnc1C(=NOCc1cccc(NC(=O)C(C)(C)C)n1)c1ncc(C(F)(F)F)cc1Cl` [Example 470], which log p is on record?
**A.** 3.44^[b]

**Q.** Which log p does the source give for `Cn1cncc1C(=NOCc1cccc(NC(=O)C(C)(C)C)n1)c1ccsc1` [Example 436] here?
**A.** 1.7^[b]

**Q.** With `CCCCCCC(=O)Nc1nc(CON=C(c2cccs2)c2cncn2C)cs1` [Example 452] as the compound, how does the log p read?
**A.** 2.14^[b]

**Q.** With `Cn1cncc1C(=NOCc1cccc(N)n1)c1cccs1` [Example 423] as the compound, how does the log p read?
**A.** 0.08^[b]

**Q.** For `CC(C)C(=O)Nc1nc(CON=C(c2cccs2)c2cncn2C)cs1` [Example 433], which log p is on record?
**A.** 1.53^[b]

Same assay, conditions: HPLC method [a]: pH 2.3, 0.1% phosphoric acid and acetonitrile as eluent; EEC directive 79/831 Annex V.A8

**Q.** Which log p does the source give for `COC(=O)c1ccc(C(F)(F)F)nc1CON=C(c1ccccn1)c1ccccn1` [Example 485] here?
**A.** 2.48^[a]

Same assay, conditions: LC-MS, method [b]: pH 2.7 with 0.1% formic acid in water and acetonitrile, linear gradient 10% to 95% acetonitrile

**Q.** With `Cn1ncnc1C(=NOCc1csc(NC(=O)C(C)(C)C)n1)c1ccccc1` [Example 101] as the compound, how does the log p read?
**A.** 2.92^[b]

**Q.** With `CCCCOC(=O)Nc1cccc(CON=C(c2ccccc2)c2nc(C)cnc2C)n1` [Example 376] as the compound, how does the log p read?
**A.** 4.29^[b]

**Q.** For `CC(C)CCC(=O)Nc1cccc(CON=C(c2ccccc2)c2ncnn2C)n1` [Example 306], which log p is on record?
**A.** 3.37^[b]

**Q.** Which log p does the source give for `CCCCCCCCCC(=O)Nc1ccnc(CON=C(c2ccccc2)c2cncn2C)n1` [Example 131] here?
**A.** 2.98^[b]

**Q.** Which log p does the source give for `CCCOC(=O)Nc1cccc(CON=C(c2ccccc2)c2nc(C)cnc2C)n1` [Example 374] here?
**A.** 3.81^[b]

**Q.** For `Cn1ccnc1C(=NOCc1cccc(NC(=O)COc2ccccc2)n1)c1ccccc1` [Example 280], which log p is on record?
**A.** 2.58^[b]

**Q.** Which log p does the source give for `Cn1cncc1C(=NOCc1cccc(N2C(=O)c3ccccc3C2=O)n1)c1ccccc1` [Example 90] here?
**A.** 1.81^[b]

**Q.** For `CCCCCCC(=O)Nc1ccnc(CON=C(c2ccccc2)c2cncn2C)n1` [Example 130], which log p is on record?
**A.** 2.2^[b]

**Q.** With `CCCCCC(=O)Nc1ccnc(CON=C(c2ccc(C)cc2)c2ncnn2C)n1` [Example 38] as the compound, how does the log p read?
**A.** 3.42^[b]

**Q.** With `Cc1cnc(C)c(C(=NOCc2cccc(N3C(=O)c4ccccc4C3=O)n2)c2ccccc2)n1` [Example 372] as the compound, how does the log p read?
**A.** 3.35^[b]

**Q.** With `Cn1ccnc1C(=NOCc1cccc(NC(=O)OCC(Cl)(Cl)Cl)n1)c1ccccc1` [Example 327] as the compound, how does the log p read?
**A.** 2.45^[b]

**Q.** Which log p does the source give for `CCCCCOC(=O)Nc1nc(CON=C(c2ccc(OC)c(Br)c2)c2ncc(C(F)(F)F)cc2Cl)cs1` [Example 371] here?
**A.** 5.59^[b]

**Q.** For `Cc1cccc(C(=NOCc2cccc(NC(=O)C3CC3)n2)c2ncnn2C)c1` [Example 20], which log p is on record?
**A.** 2.73^[b]

**Q.** Which log p does the source give for `Cc1ccc(C(=NOCc2nccc(NC(=O)C(C)(C)C)n2)c2ncnn2C)cc1` [Example 39] here?
**A.** 3.02^[b]

**Q.** For `CCCCS(=O)(=O)Nc1cccc(CON=C(c2ccc(C)cc2)c2ncnn2C)n1` [Example 74], which log p is on record?
**A.** 3.04^[b]

**Q.** For “6-[({[(1-methyl-1H-imidazol-5-yl)(phenyl)methylene]amino}oxy)methyl]pyridin-2-amine [Example 108]”, which log p is on record?
**A.** 4.75^[b]

**Q.** For `Cc1ccccc1C(=NOCc1cccc(NC(=O)C(C)(C)C)n1)c1ncnn1C` [Example 25], which log p is on record?
**A.** 3.06^[b]

**Q.** For `Cn1ccnc1C(=NOCc1cccc(NC(=O)CSc2ccccc2)n1)c1cccc(F)c1` [Example 286], which log p is on record?
**A.** 2.82^[b]

**Q.** Which log p does the source give for `CCCCCC(=O)Nc1cccc(CON=C(c2ccccc2C)c2ncnn2C)n1` [Example 24] here?
**A.** 3.46^[b]

**Q.** With `CCCCS(=O)(=O)Nc1cccc(CON=C(c2cccc(C)c2)c2ncnn2C)n1` [Example 75] as the compound, how does the log p read?
**A.** 3.04^[b]

**Q.** Which log p does the source give for `CCCCCOC(=O)Nc1cccc(CON=C(c2ccccc2)c2ocnc2C)n1` (single isomer, unassigned) [Example 318] here?
**A.** 4.34^[b]

**Q.** For `Cn1ccnc1C(=NOCc1cccc(N2C(=O)c3ccccc3C2=O)n1)c1cccs1` [Example 385], which log p is on record?
**A.** 1.78^[b]

**Q.** With `Cn1ncnc1C(=NOCc1cccc(NC(=O)CCc2ccc(Cl)s2)n1)c1ccccc1` [Example 295] as the compound, how does the log p read?
**A.** 3.74^[b]

**Q.** Which log p does the source give for `Cn1nncc1C(=NOCc1nccc(N)n1)c1ccccc1` [Example 70] here?
**A.** 0.96^[b]

**Q.** With `Nc1ccnc(CON=C(c2ccsc2)c2snc(Cl)c2Cl)n1` [Example 382] as the compound, how does the log p read?
**A.** 1.86^[b]

**Q.** For `COc1ccc(C(=NOCc2csc(N)n2)c2ncc(C(F)(F)F)cc2Cl)cc1Br` [Example 357], which log p is on record?
**A.** 2.8^[b]

**Q.** Which log p does the source give for `Cc1ccc(C(=NOCc2cccc(N3C(=O)c4ccccc4C3=O)n2)c2ncnn2C)cc1` [Example 10] here?
**A.** 2.92^[b]

**Q.** With `CCCCCC(=O)Nc1cccc(CON=C(c2ccccc2)c2nc(C)cnc2C)n1` [Example 377] as the compound, how does the log p read?
**A.** 4.09^[b]

**Q.** For `Cn1cncc1C(=NOCc1csc(NC(=O)C(C)(C)C)n1)c1ccccc1` [Example 117], which log p is on record?
**A.** 1.84^[b]

**Q.** With `COC(C(=O)Nc1cccc(CON=C(c2ccccc2)c2nccn2C)n1)c1ccccc1` (stereo not shown) [Example 337] as the compound, how does the log p read?
**A.** 2.15^[b]

**Q.** For `CCC(C)CC(=O)Nc1cccc(CON=C(c2ccccc2)c2ncnn2C)n1` (stereo not shown) [Example 307], which log p is on record?
**A.** 3.31^[b]

**Q.** For `Cn1ncnc1C(=NOCc1cccc(NC(=O)C(C)(C)C)n1)c1cccs1` [Example 395], which log p is on record?
**A.** 2.82^[b]

**Q.** Which log p does the source give for `CCC(C)CC(=O)Nc1cccc(CON=C(c2cccc(F)c2)c2nccn2C)n1` (stereo not shown) [Example 288] here?
**A.** 2.77^[b]

**Q.** For `CCCCCOC(=O)Nc1ccnc(CON=C(c2ccccc2)c2cncn2C)n1` [Example 115], which log p is on record?
**A.** 2.66^[b]

**Q.** Which log p does the source give for `Cn1ncnc1C(=NOCc1cccc(NC(=O)CCCCCl)n1)c1ccccc1` [Example 308] here?
**A.** 2.98^[b]

**Q.** Which log p does the source give for `CCCCCOC(=O)Nc1cccc(CON=C(c2ccccc2)c2ncnn2C)n1` [Example 35] here?
**A.** 3.96^[b]

**Q.** With `C#CCCOC(=O)Nc1cccc(CON=C(c2ccccc2)c2nccn2C)n1` [Example 332] as the compound, how does the log p read?
**A.** 1.78^[b]

**Q.** Which log p does the source give for `COc1ccc(C(=NOCc2cccc(NC(=O)Cc3ccccc3)n2)c2ncc(C(F)(F)F)cc2Cl)cc1Br` [Example 365] here?
**A.** 5.08^[b]

**Q.** Which log p does the source give for `COc1ccc(C(=NOCc2cccc(NC(=O)c3ccccc3)n2)c2ncc(C(F)(F)F)cc2Cl)cc1Br` [Example 364] here?
**A.** 5.23^[b]

Same assay, conditions: method [b]: LC-MS at pH 2.7, 0.1% formic acid in water / acetonitrile, linear gradient 10% to 95% acetonitrile

**Q.** With `Cn1ncnc1C(=NOCc1cccc(NC(=O)CCc2cccc(Cl)c2)n1)c1ccccc1` [Example 238] as the compound, how does the log p read?
**A.** 3.73^[b]

**Q.** For `Cn1cnnc1C(=NOCc1cccc(C#CCC2CCCC2)n1)c1ccccc1` [Example 230], which log p is on record?
**A.** 3.76^[b]

**Q.** Which log p does the source give for `Cn1ncnc1C(=NOCc1cccc(CN2C(=O)c3ccccc3C2=O)n1)c1ccccc1` [Example 161] here?
**A.** 2.9^[b]

**Q.** For `CC(C(=O)Nc1cccc(CON=C(c2ccccc2)c2ncnn2C)n1)c1ccccc1` (stereo not shown) [Example 240], which log p is on record?
**A.** 3.42^[b]

**Q.** With `COc1ccc(CC(=O)Nc2cccc(CON=C(c3cccc(F)c3)c3nccn3C)n2)cc1` [Example 273] as the compound, how does the log p read?
**A.** 2.54^[b]

**Q.** With `COc1ccccc1CC(=O)Nc1cccc(CON=C(c2ccccc2)c2nccn2C)n1` [Example 268] as the compound, how does the log p read?
**A.** 2.47^[b]

**Q.** Which log p does the source give for `CC(=O)OCCCCOC(=O)Nc1cccc(CON=C(c2ccccc2)c2nc(C(F)(F)F)nn2C)n1` [Example 185] here?
**A.** 4.11^[b]

**Q.** Which log p does the source give for `CSCCC(=O)Nc1cccc(CON=C(c2ccccc2)c2nccn2C)n1` [Example 271] here?
**A.** 1.9^[b]

**Q.** For `CCCCC(=O)Nc1cccc(CON=C(c2ccccc2)c2cncn2C)n1` [Example 258], which log p is on record?
**A.** 1.82^[b]

**Q.** With `Cn1ccnc1C(=NOCc1cccc(NC(=O)OCCF)n1)c1ccccc1` [Example 272] as the compound, how does the log p read?
**A.** 1.81^[b]

**Q.** Which log p does the source give for `Cn1cnnc1C(=NOCc1cccc(C#Cc2ccccc2)n1)c1ccccc1` [Example 232] here?
**A.** 3.15^[b]

**Q.** For `CCCCCOC(=O)Nc1cccc(CON=C(c2ccccc2)c2snnc2C)n1` [Example 217], which log p is on record?
**A.** 5.11^[b]

**Q.** For `CCc1ccc(C(=O)Nc2cccc(CON=C(c3ccccc3)c3ncnn3C)n2)cc1` [Example 252], which log p is on record?
**A.** 3.73^[b]

**Q.** Which log p does the source give for `Cn1ncnc1C(=NOCc1cccc(CNC(=O)Cc2ccccc2)n1)c1ccccc1` [Example 138] here?
**A.** 2.44^[b]

**Q.** For `Cn1ccnc1C(=NOCc1nccc(NC(=O)C(C(=O)Cc2ccccc2)c2ccccc2)n1)c1ccccc1` (stereo not shown) [Example 166], which log p is on record?
**A.** 2.59^[b]

**Q.** Which log p does the source give for `Cn1ncnc1C(=NOCc1cccc(NC(=O)C2CCCCO2)n1)c1ccccc1` (stereo not shown) [Example 251] here?
**A.** 3.15^[b]

**Q.** Which log p does the source give for `Cn1nncc1C(=NOCc1csc(N)n1)c1ccccc1` [Example 165] here?
**A.** 1.29^[b]

**Q.** Which log p does the source give for `CSCCC(=O)Nc1cccc(CON=C(c2ccccc2)c2nnc(C(F)(F)F)n2C)n1` [Example 206] here?
**A.** 3.15^[b]

**Q.** For `Cn1c(C(=NOCc2cccc(NC(=O)C(C)(C)C)n2)c2ccccc2)nnc1C(F)(F)F` [Example 198], which log p is on record?
**A.** 3.58^[b]

**Q.** With `Cn1ncnc1C(=NOCc1cccc(NC(=O)CCCc2ccccc2)n1)c1ccccc1` [Example 249] as the compound, how does the log p read?
**A.** 3.6^[b]

**Q.** For `Cn1cnnc1C(=NOCc1cccc(N)n1)c1ccccc1` [Example 156], which log p is on record?
**A.** 0.88^[b]

Same assay, conditions: reversed phase HPLC column, pH 2.7

**Q.** Which chromatographic logP does the source give for `Cn1ncnc1C(=NOCc1cccc(N2C(=O)c3ccccc3C2=O)n1)c1ccccc1` [Example 13, 2-{6-[({[(1-methyl-1H-1,2,4-triazol-5-yl)(phenyl)methylene]amino}oxy)methyl]pyridin-2-yl}-1H-isoindole-1,3(2H)-dione] here?
**A.** 2.76
